Reference: patent publication US7829542B2, “Prophylactic and therapeutic treatment of infectious and other diseases with immunoeffector compounds” (Corixa Corporation, priority 2002, dated 2010)

Columns and labels:
Influenza A/HK/68 = test: Protection against lethal influenza challenge by prophylactic administration; format: in vivo, BALB/c mice; settings: 20 μg intranasally 48 hours prior to lethal intranasal challenge (5 LD50)
Protocol: This example provides experiments evaluating protection against a lethal challenge with influenza in cyclic AGP-treated mice. BALB/c mice (10 mice per group) were treated intranasally with 20 μg of the compounds of examples 1, 2 and 3, or with MPL, 48 hours prior to an lethal intranasal challenge of Influenza A/HK/68 (5 LD50). Protection was judged by survival, observations of clinical symptoms (ruffled fur, hunched posture and labored breathing), and prevention of weight loss for 21 days following the challenge.

[1] = tested on: L. monocytogenes 10403 serotype; test: Murine Listeria monocytogenes challenge model (induction of non-specific resistance); format: in vivo, mice; settings: 1 μg intravenously in 0.2% TEOA, i.v. challenge with ~10^5 L. monocytogenes two days later, spleen CFUs two days after challenge
Protocol: This example provides experiments evaluating the induction of non-specific resistance in the murine Listeria monocytogenes challenge model performed using the compounds prepared in examples 1, 2 and 3. Mice (5 per group) were treated intravenously with the 1 μg of a cyclic AGP or MPL solublized in 0.2% triethanolamine (TEOA). Two days later the mice were challenged intravenously with a ˜10^5 L. monocytogenes 10403 serotype (stock culture provided by Jory Baldridge, Washington State University, Pullman, Wash.). Two days after the challenge the mice were sacrificed and the number of colony forming units (CFUs) in the spleens of individual mice were determined by plating 10-fold serial dilutions of splenic homogenates on tryptic soy agar plates. The degree of protection afforded by a given AGP or MPL was calculated by subtracting the average number of bacteria per spleen (log 10 value) in the group of mice treated with a given compound, from the average number of bacteria per spleen (log 10 value) in a control group that was “sham” treated with vehicle (0.2% TEOA) prior to challenge with L. monocytogenes.

Molecule | protection compared with the vehicle control (in words) (Influenza A/HK/68) | survival rate (Influenza A/HK/68; followed for 21 days) | degree of protection: average bacteria per spleen (log 10) in the vehicle control group minus that in the treated group [1] | survival (in words) (Influenza A/HK/68; followed for 21 days)
CCCCCCCCCCCC(=O)O[C@H](CCCCCCCCCCC)CC(=O)N[C@H]1[C@H](OC[C@@H]2CCCN2C(=O)C[C@@H](CCCCCCCCCCC)OC(=O)CCCCCCCCCCC)O[C@H](CO)[C@@H](OP(=O)(O)O)[C@@H]1OC(=O)C[C@@H](CCCCCCCCCCC)OC(=O)CCCCCCCCCCC.CCN(CC)CC [Example 2, N-[(R)-3-Dodecanoyloxytetradecanoyl]-(S)-2-pyrrolidinylmethyl 2-Deoxy-4-O-phosphono-2-[(R)-3-dodecanoyloxy-tetradecanoylamino]-3-O-[(R)-3-dodecanoyloxytetradecanoyl]-β-D-glucopyranoside Triethylammonium Salt] | enhanced protection | 40% | 0.7 log 10 units | 
CCCCCCCCCCC[C@H](CC(=O)N[C@H]1[C@H](OC[C@@H]2CCCN2C(=O)C[C@@H](CCCCCCCCCCC)OC(=O)CCCCCCCCC)O[C@H](CO)[C@@H](OP(=O)(O)O)[C@@H]1OC(=O)C[C@@H](CCCCCCCCCCC)OC(=O)CCCCCCCCC)OC(=O)CCCCCCCCC.CCN(CC)CC [Example 3, N-[(R)-3-Decanoyloxytetradecanoyl]-(S)-2-pyrrolidinylmethyl 2-Deoxy-4-O-phosphono-2-[(R)-3-Decanoyloxytetradecanoylamino]-3-O-[(R)-3-Decanoyloxytetradecanoyl]-β-D-glucopyranoside Triethylammonium Salt] | enhanced protection | 60% | ~0.9 log 10 units | 
N-[(R)-3-Tetradecanoyloxytetradecanoyl]-(S)-2-pyrrolidinylmethyl 2-Deoxy-4-O-phosphono-2-[(R)-3-tetradecanoyloxytetradecanoylamino]-3-O-[(R)-3-tetradecanoyloxytetradecanoyl]-β-D-glucopyranoside Triethylammonium Salt [Example 1] |  |  | 0.2 log 10 units | No mice treated with the compound of example 1 survived
